Results reported in patent US9682931B2, “Aryloyl(oxy or amino)pentafluorosulfanylbenzene compound, pharmaceutically acceptable salt thereof, and prodrugs thereof” (UBE INDUSTRIES, LTD., priority 2013, dated 2017).
Converted amounts (≈) assume the structure as drawn. Where two headings read alike, the source gives them in different places. Marks after values point to notes of the source that are not given here.

Tests used:
[1] = tested on: Salmonella typhimurium TA98 strain and TA100 strain; experiment: Growth inhibitory action and bactericidal action on salmonella (preincubation method, with and without S9 mix); type: cell-based; details: for Bactericidal action: lowest concentration at which all bacterial cells were killed
Method: Growth inhibitory action and bactericidal action on salmonella
1) Preparation of Test-Substance Solution
Test substances (compounds listed in Table 1) each were prepared by dissolving it in DMSO when used. Preparation was made in such a manner that the highest dose became 5000 μg/plate and the dose lower than this was prepared by a dilution method. In the table, reference numerals of individual compounds correspond to the numbers of the individual compounds synthesized in the above Examples (the same applies to the following Tables).
Salmonella typhimurium TA98 strain and TA100 strain were used.
These were supplied by Japan Bioassay Research Center, proliferated and examined for genetic properties and other properties in accordance with customary methods, in advance. After these strains were confirmed to have these properties, they are cryopreserved (−80° C.) with a DMSO-added medium; and thawed for use in each test.
3) A cryopreserved strain was thawed and inoculated in a 2.5% aqueous nutrient broth (OXOID No. 2) solution and cultured while shaking at 37° C. for 7 hours to obtain a cell suspension, which was subjected to tests.
A minimum glucose agar plate medium (Vital Media AMT-S, manufactured by Kyokuto Pharmaceutical Industrial Co., Ltd.) was used.
The top agar was prepared when used by blending an aqueous solution of 0.5 mM L-histidine and 0.5 mM D-(+)-biotin with an aqueous solution prepared by adding Bacto Agar (Difco) (0.6%) and sodium chloride (0.5%).
S9 was purchased from Kikkoman; whereas a cofactor was previously prepared in accordance with a method known in the art. They were mixed in a customary method to prepare S9 mix.
Using a test system containing S9 mix and a test system containing no S9 mix, a test was carried out in accordance with a preincubation method. As the dose selection, the highest dose was specified as […], which was then serially diluted in a common ratio of 2 to prepare a total of 15 doses to be used in the test.
To a sterile test tube, a test solution (0.1 mL) and 0.1 M Na-phosphate buffer or S9 mix (0.5 mL) and a cell suspension (0.1 mL) were sequentially dispensed. Pre-incubation was carried out at 37° C. for 20 minutes while shaking. After completion of the pre-incubation, top agar (2 mL) kept warm at 45° C. was added, mixed and placed on a minimum glucose agar plate medium. After solidification, the plate was turned upside down and cultured at 37° C. for 48 hours.
After completion of the culture, the state of microbial growth was observed by a stereomicroscope. After a precipitate on the plate was observed, revertant colonies were counted by the naked eye or a colony counter.
7) Criteria for Determination
Growth of both TA98 and TA100 strains was examined in the presence or absence of S9 mix. Among the resultant concentrations at which growth was inhibited, the lowest concentration was specified as the growth inhibitory concentration. Similarly, the bactericidal concentration was specified as the lowest concentration at which all bacterial cells were killed.

[2] = tested on: K562 human leukemia-derived cell lines; experiment: K562 human leukemia cell-proliferation inhibition test; type: cell-based; details: K562 cells, 72 hours, viable cells counted with trypan blue
Method: K562 Human Leukemia Cell-Proliferation Inhibition Test
A cell proliferation inhibition test using K562 cells was performed. The activity in the presence of a test substance was compared to the activity in the presence of green tea polyphenol (GTP). The materials used in the test are as follows.
Cells: K562 human leukemia-derived cell lines (DS Pharma Biomedical Co., Ltd.)
Control Substance: Green Tea Polyphenols, abbreviation: GTP (LKT Laboratories, Inc.)
Culture solution: 10% equine serum-supplemented RPMI1640 medium
A test substance and a control substance were used by dissolving each of them in DMSO. To a solution (0.99 mL) containing K562 cells in a cell concentration of 20,000 cells/mL, a test substance solution or a control substance solution (0.01 mL) was added and the cells were cultured. Seventy two hours later, a part of the cells was stained with trypan blue and viable cells were counted by a counting chamber.
In Table 2, “IC50” denotes the sample concentration inhibiting 50% of cell proliferation

[3] = TA98 and TA100, presence or absence of S9 mix
[4] = lowest concentration at which growth was inhibited, TA98 and TA100, presence or absence of S9 mix
[5] = Homo sapiens, K562, 72 h, read-out: IC50

| IC50 [2, 5] | SMILES | Bactericidal action [1, 3] | Growth inhibition [1, 4] | further results |
| --- | --- | --- | --- | --- |
| – | O=C(/C=C/c1ccc(O)c(O)c1)Nc1ccc(S(F)(F)(F)(F)F)cc1 [Compound 5, 4-(3,4-dihydroxycinnamoylamino)pentafluorosulfanylbenzene] | 78.1 μg/plate | 19.5 μg/plate | IC50 [2]: 0.36 µg/mL (≈ 0.944 µM) |
| – | O=C(Nc1ccc(S(F)(F)(F)(F)F)cc1NC(=O)c1cc(O)c(O)c(O)c1)c1cc(O)c(O)c(O)c1 [Compound 14, 3,4-bis(3,4,5-trihydroxybenzoylamino)pentafluorosulfanylbenzene] | 1250 μg/plate | 625 μg/plate | – |
| – | O=C(Nc1cc(S(F)(F)(F)(F)F)ccc1O)c1cc(O)c(O)c(O)c1 [Compound 12, 3-(3,4,5-trihydroxybenzoylamino)-4-hydroxypentafluorosulfanylbenzene] | 1250 μg/plate | 313 μg/plate | – |
| 4.2 µg/mL (≈ 12.3 µM) | O=C(Nc1ccc(S(F)(F)(F)(F)F)cc1)c1ncccc1O [Compound 68, 4-(3-hydroxypyridin-2-yl)carbonylaminopentafluorosulfanylbenzene] | – | – | – |
| 0.1 µg/mL (≈ 0.308 µM) | O=C(Nc1ccc(S(F)(F)(F)(F)F)cc1)c1ccncc1 [Compound 72, 4-(pyridin-4-yl)carbonylaminopentafluorosulfanylbenzene] | – | – | – |
| 4.8 µg/mL (≈ 10.4 µM) | COc1cc(/C=C/C(=O)Nc2ccc(S(F)(F)(F)(F)F)cc2)ccc1OCC=C(C)C [Compound 37, 4-(4-(3-methyl-2-butenyloxy)-3-methoxycinnamoylamino)pentafluorosulfanylbenzene] | – | – | – |
| 0.9 µg/mL (≈ 2.12 µM) | COc1cc(/C=C/C(=O)Nc2ccc(S(F)(F)(F)(F)F)cc2)cc(OC)c1O [Compound 53, 4-(4-hydroxy-3,5-dimethoxycinnamoylamino)pentafluorosulfanylbenzene] | – | – | – |
| 2 µg/mL (≈ 5.86 µM) | O=C(Nc1ccc(S(F)(F)(F)(F)F)cc1)c1cc(O)ncn1 [Compound 69, 4-(4-hydroxypyrimidin-6-yl)carbonylaminopentafluorosulfanylbenzene] | – | – | – |
| 0.93 µg/mL (≈ 2.35 µM) | COc1cc(/C=C/C(=O)Nc2ccc(S(F)(F)(F)(F)F)cc2)ccc1O [Compound 21, 4-(4-hydroxy-3-methoxycinnamoylamino)pentafluorosulfanylbenzene] | – | – | – |
| 3.3 µg/mL (≈ 9.24 µM) | O=C(Nc1ccc(S(F)(F)(F)(F)F)cc1)c1ccc(O)c(F)c1 [Compound 57, 4-(4-hydroxy-3-fluorobenzoylamino)pentafluorosulfanylbenzene] | – | – | – |
| 1 µg/mL (≈ 2.22 µM) | C=CC(C)Oc1ccc(/C=C/C(=O)Nc2ccc(S(F)(F)(F)(F)F)cc2)cc1OC (stereo not drawn) [Compound 44, 4-(4-(1-methyl-2-propenyloxy)-3-methoxycinnamoylamino)pentafluorosulfanylbenzene] | – | – | – |
| – | O=C(/C=C/c1ccc(O)c(O)c1)Nc1ccc(S(F)(F)(F)(F)F)cc1 [Compound 56, 4-(3,4-dihydroxycinnamoylamino)pentafluorosulfanylbenzene] | – | – | IC50 [2]: 0.83 µg/mL (≈ 2.18 µM) |
| 14 µg/mL (≈ 35.2 µM) | O=C(/C=C/c1cc(O)c(O)c(O)c1)Nc1ccc(S(F)(F)(F)(F)F)cc1 [Compound 24, 4-(3,4,5-trihydroxycinnamoylamino)pentafluorosulfanylbenzene] | – | – | – |
| 2.3 µg/mL (≈ 6.76 µM) | O=C(Nc1ccc(S(F)(F)(F)(F)F)cc1)c1cccc(O)n1 [Compound 66, 4-(2-hydroxypyridin-6-yl)carbonylaminopentafluorosulfanylbenzene] | – | – | – |
| 2.3 µg/mL (≈ 7.07 µM) | O=C(Nc1ccc(S(F)(F)(F)(F)F)cc1)c1ccncn1 [Compound 73, 4-(pyrimidin-4-yl)carbonylaminopentafluorosulfanylbenzene] | – | – | – |
| 1.9 µg/mL (≈ 4.66 µM) | C=CC(C)(C)Oc1cccc(C(=O)Nc2ccc(S(F)(F)(F)(F)F)cc2)c1 [Compound 48, 4-(3-(1,1-dimethyl-2-propenyloxy)benzoylamino)pentafluorosulfanylbenzene] | – | – | – |
| 1.1 µg/mL (≈ 2.76 µM) | COc1cc(C(=O)Nc2ccc(S(F)(F)(F)(F)F)cc2)ccc1[N+](=O)[O-] [Compound 59, 4-(4-nitro-3-methoxybenzoylamino)pentafluorosulfanylbenzene] | – | – | – |
| – | CC(=O)Oc1ccc(/C=C/C(=O)Oc2ccc(S(F)(F)(F)(F)F)cc2)cc1OC(C)=O [Compound 22, 4-(3,4-diacetoxycinnamoyloxy)pentafluorosulfanylbenzene] | 156 μg/plate | 156 μg/plate | – |
| 2 µg/mL (≈ 6.36 µM) | O=C(Nc1ccc(S(F)(F)(F)(F)F)cc1)c1cocn1 [Compound 81, 4-(oxazol-4-yl)carbonylaminopentafluorosulfanylbenzene] | – | – | – |

| SMILES | IC50 [2, 5] | Bactericidal action [1, 3] | Growth inhibition [1, 4] | further results |
| --- | --- | --- | --- | --- |
| O=C(Nc1cccc(S(F)(F)(F)(F)F)c1)c1cc(O)c(O)c(O)c1 [Compound 11, 3-(3,4,5-trihydroxybenzoylamino)pentafluorosulfanylbenzene] | 1.5 µg/mL (≈ 4.04 µM) | 625 μg/plate | 78.1 μg/plate | – |
| O=C(/C=C/c1ccccc1)Nc1ccc(S(F)(F)(F)(F)F)cc1 [Compound 35, 4-(cinnamoylamino)pentafluorosulfanylbenzene] | 0.2 µg/mL (≈ 0.573 µM) | >2500 μg/plate | 39.1 μg/plate | – |
| COc1cc(/C=C/C(=O)Nc2ccc(S(F)(F)(F)(F)F)cc2)ccc1OC(C)=O [Compound 20, 4-(4-acetoxy-3-methoxycinnamoylamino)pentafluorosulfanylbenzene] | 1.7 µg/mL (≈ 3.89 µM) | – | 156 μg/plate | – |
| Nc1ccc(C(=O)Nc2ccc(S(F)(F)(F)(F)F)cc2)cc1 [Compound 61, 4-(4-aminobenzoylamino)pentafluorosulfanylbenzene] | 0.086 µg/mL (≈ 0.254 µM) | – | – | – |
| CC(=O)Oc1cc(C(=O)Nc2ccc(S(F)(F)(F)(F)F)cc2)cc(OC(C)=O)c1OC(C)=O [Compound 9, 4-(3,4,5-triacetoxybenzoylamino)pentafluorosulfanylbenzene] | 1.2 µg/mL (≈ 2.41 µM) | 625 μg/plate | 156 μg/plate | – |
| CC(=O)Oc1ccc(/C=C/C(=O)Nc2ccc(S(F)(F)(F)(F)F)cc2)cc1OC(C)=O [Compound 4, 4-(3,4-diacetoxycinnamoylamino)pentafluorosulfanylbenzene] | 2.2 µg/mL (≈ 4.73 µM) | 156 μg/plate | – | Growth inhibition ([1]; TYPHIMURIUM): <39.1*^1 μg/plate |
